In one test the test system is p62/SQSTM1, LC3. Put plainly: Autophagy markers in cultured cells (vacuoles, LC3-II, p62/SQSTM1, electron microscopy). Type of test: cell-based, human. The following applies: for p62/SQSTM1 oligomers in soluble and detergent-insoluble fractions: 24 h, PES 20 μM, Velcade 100 nM, CQ 50 μM, 17-AAG 15 nM.
For a further test, the system named is 20S proteasome. Put plainly: Cell-based 20S proteasome activity assay. On the set-up: species or system human. The following applies: H1299 or A875 cells; PES 20 μM, 17-AAG 1 μM, CQ 5 μM.
Another test has as its system EGFR, HER2/ErbB2, AKT. Put plainly: Western blot of HSP70/HSP90 client proteins in detergent-soluble and detergent-insoluble fractions. Type of test: cell-based, human. As to the method:
FIG. 17. PES impairs the proteasome system. (A) Cell-based 20S proteasome activity assay of H1299 or A875 human tumor cells treated with DMSO, 20 μM PES, 100 nM Velcade (proteasome inhibitor), 1 μM 17-AAG (HSP90 inhibitor), 5 μM CQ (lysosome inhibitor), or 20S proteasome inhibitor epigallocatechin gallate (EGCG). Each graphical representation indicates the mean±SD of at least three independent cultures relative to control (DMSO-treated) cells. (B) Cell extracts from SKBR3 human breast carcinoma cells, treated either with 20 μM PES or 1 μM 17-AAG for 24 h, were immunoprecipitated (IP) using anti-HSP70 or anti-HSP90 antibody. […] MTT assays of MCF7 human breast carcinoma cells pretreated with DMSO, or 5 μM PES for 1 h, followed by the addition of indicated amount of 17-AAG for 47 h. The results represent the mean±SD of at least three independent analysis of cultures relative to control (DMSO-treated) cells. (D and E) H1299 cells (D) or SKBR3 cells (E) were treated with DMSO, 20 μM PES, 17-AAG, or 17-AAG plus bortezomib (Velcade) as indicated; harvested in 1% NP-40 containing lysis buffer; fractionated into detergent-soluble and detergent-insoluble preparations; and assayed by western blot.
FIG. 18. Accumulation of HSP90 client proteins in the protein detergent-insoluble fraction following PES. (A) SKOV3 cells were treated with DMSO, 10 μM PES, or 20 μM PES for 24 h. Note the marked accumulation of EGFR, HER2/ErbB2, and AKT in the detergent-insoluble fraction following 20 μM PES treatment. (B and C) SKOV3 (B) or SKBR3 (C) cells were treated with DMSO, 20 μM PES, or 1 μM 17-AAG, as indicated, for 24 h. Cells were harvested in 1% NP-40 containing lysis buffer, fractionated into detergent-soluble and detergent-insoluble preparations, and assayed by western blot for the proteins indicated.
The HSP70 and HSC70 proteins bind to exposed hydrophobic regions of nascent-, translocating-, misfolded- or partially unfolded-proteins. These ATP-dependent molecular chaperones act in multi-protein complexes in conjunction with one or more regulatory co-chaperones to carry out multiple cellular functions. […] This is illustrated for H1299 cells treated with 10 or 20 μM PES for 24 h. […] This correlates with a reduced abundance of complexes containing HSP70, or HSC70, together with client proteins or co-chaperones (FIGS. 19A and 19B). […] However, since HSP70/HSC70 act as critical co-chaperones for HSP90, for example in client protein recruitment, PES-mediated alteration in the function of the 70-kDa molecular chaperones could be reflected in an altered behavior or expression of many client proteins. To test this idea, we examined the expression of a few well-established HSP90 client proteins, including the transmembrane tyrosine kinase receptors EGFR and HER2/ERBB2, and the downstream signaling factor AKT. These proteins are overexpressed, or aberrantly expressed, in a variety of human tumors, and have been implicated in cancer etiology and pathology. As a control for these studies, we compared the effects of PES to that of the well-established HSP90 inhibitor, 17-allylamino-17-demethoxygeldanamycin (17-AAG). 17-AAG interacts with the N-terminal region of HSP90 and inhibits its ATPase activity; this disrupts interactions of HSP90 with client proteins and leads to client-protein degradation via the ubiquitin-proteasome pathway (Whitesell, et al. 2005; Neckers, et al. 2007). To examine the expression of some HSP70/HSP90 clients, we used western blot analysis of detergent-soluble (clarified) whole cell extracts.

The target of test [1] is T1, HSP70 (Homo sapiens, UniProt P0DMV8). Put plainly: In vitro binding of B-PES on NeutrAvidin resins to 35S-labelled in vitro translated protein.
Target sequence in this assay (P0DMV8 whole entry): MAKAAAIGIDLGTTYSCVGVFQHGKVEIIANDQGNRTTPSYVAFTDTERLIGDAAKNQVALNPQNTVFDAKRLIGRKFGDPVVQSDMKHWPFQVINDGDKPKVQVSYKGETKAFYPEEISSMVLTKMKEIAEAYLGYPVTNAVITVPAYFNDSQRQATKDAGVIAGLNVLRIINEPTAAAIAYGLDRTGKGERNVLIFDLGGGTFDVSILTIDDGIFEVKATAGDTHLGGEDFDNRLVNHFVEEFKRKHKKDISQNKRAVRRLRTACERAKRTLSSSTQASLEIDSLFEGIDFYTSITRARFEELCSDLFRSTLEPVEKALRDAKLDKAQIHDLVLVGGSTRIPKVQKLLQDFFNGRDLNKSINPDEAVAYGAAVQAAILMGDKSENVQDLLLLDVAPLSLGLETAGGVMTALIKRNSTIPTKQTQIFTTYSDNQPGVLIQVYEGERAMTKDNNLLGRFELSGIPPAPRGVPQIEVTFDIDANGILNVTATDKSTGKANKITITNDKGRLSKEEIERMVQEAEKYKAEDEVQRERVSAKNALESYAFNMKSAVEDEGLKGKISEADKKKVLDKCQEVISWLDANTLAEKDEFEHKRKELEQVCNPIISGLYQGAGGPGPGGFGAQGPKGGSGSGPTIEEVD
The target in test [2] is T1, HSP70. The test is described as follows: Capture of HA-tagged HSP70 constructs from transfected H1299 cells with biotinylated compound. Type of test: binding. On the set-up: expressed in transfected cells; host or cells: H1299. The procedure:
FIG. 1. PES Binds to HSP70. (A) Whole cell extracts (WCE) prepared from A875 and BCL-xL over-expressing U2OS human osteosarcoma cells (BX-U2OS) cells, treated with Biotin or Biotin-PES (B-PES), were captured using NeutrAvidin agarose resins. HSP70-family proteins were identified as the major product in the excised band of ˜70 kDa shown in both Coomassie gels. (B and C) WCE were prepared from the cell lines indicated following 24 h treatment with 20 μM Biotin or B-PES and examined for the expression of proteins indicated (left panel of B and C) by western blot analysis; note that different exposure times were used to visualize these proteins. […] (D) In vitro evidence for an interaction between B-PES and HSP70. Full-length human HSP70 and human HSP90 proteins were in vitro translated in the presence of ^35S-methionine, mixed with B-PES coupled to NeutrAvidin resins, and eluted using 100 mM DTT. The resulting DTT eluates were separated by polyacrylamide gel electrophoresis (SDS-PAGE) and visualized by autoradiography. (E) B-PES interacts with the C-terminal region of HSP70. H1299 cells were transfected with the indicated hemagglutinin (HA)-tagged constructs and exposed to B-PES. B-PES containing complexes were captured by NeutrAvidin Resins, eluted following 100 mM DTT treatment, and immunoblotted with anti-HA antibody following SDS-PAGE. (F) Non-transformed human IMR90 fibroblasts or H1299 lung carcinoma cells were treated with the indicated concentrations of PES for 24 h and cell viability was determined by MTT assays. (G) WCE were prepared from the cell lines indicated following 5 hr treatment with 20 μM PES or B-PES and examined for the expression of proteins indicated (left panel) by western blot analysis; note that different exposure times were used to visualize these proteins. B-PES-containing complexes were captured by NeutrAvidin resins, eluted following 50 mM DTT treatment, and immunoblotted using the indicated antibodies.
The free amide group of PES-Cl was biotinylated and added to HA-tagged HSP70-transfected H1299 cells. The treatment of the cells occurred for 6 hours. The complexes were pulled down with NeutrAvidin beads, eluted with 100 mM DTT treatments, separated with SDS-PAGE and detected with anti-HA antibody (Millipore) by Western blot.
Docking studies were performed using the C-terminal HSP70 crystal structure (FIG. 32) to elucidate the PES binding site in silico (FIG. 33). Blind docking methods were used in the program AutoDock to locate potential PES binding sites. These methods use a course grid docking approach, encompassing the entire protein, to identify favorable binding sites using a known binding ligand, and are examined by hand to support the AutoDock data. […]

The target in test [3] is T1, HSP70. Put plainly: Biotin-PES complexes captured with NeutrAvidin resins from treated cells, IP-WB. The following applies: 20 μM.
Target sequence in this assay (P0DMV8 whole entry): as above
The target in the next test is HSC70 (Homo sapiens, UniProt P11142). The description is as above. The following applies: 20 μM.
Another test has as its target GRP78 (Homo sapiens, UniProt P11021). The description is as above. The following applies: 20 μM, 24 h.
The next test concerns HSP90. Described as above. The following applies: 20 μM, 24 h.
Test [4] deals with T1, HSP70. Put plainly: Competition of untagged PES with B-PES for HSP70. The following applies: purified HSP70, 0.25 mM B-PES, 0.125 mM untagged PES. Type of test: binding. On the set-up: endogenous in cells; host or cells: human tumor cell lines (A875, BX-U2OS, U2OS, H1299, MiaPaCa2, HepG2, SKBR3, 293T). As to the method: FIG. 15. Evidence supporting HSP70 as the cellular target of PES. (A) Competition studies in vivo support HSP70 as a PES target. H1299 cells were either pre-treated with DMSO or excess (25×) untagged PES for 1 h prior to the addition of 20 μM Biotin-PES (B-PES) for 5 h, and examined for the expression of proteins indicated (left). B-PES-containing complexes were captured by NeutrAvidin Resins, and immunoblotted using the indicated antibodies. […] (B) Competition studies in vitro support HSP70 as a PES target. Purified HSP70 protein was incubated with 0.25 mM B-PES in the absence and in the presence of 0.125 mM untagged PES.
Target sequence in this assay (P0DMV8 whole entry): as above

In the next test the test system is caspase-3, caspase-8. The test is described as follows: Western blot for caspase cleavage. In kind it is cell-based, human. The following applies: U2OS, 20 μM pretreatment 1 h.
The next test deals with tumor cell lines. Put plainly: MTT cell viability assay. In kind it is cell-based, human. The following applies: 20 μM pretreatment 1 h, then 20 μM PES 24 h. The procedure: Cell viability assays were performed using an MTT (methyl thiazolyl tetrazolium) colorimetric assay (Roche Applied Science, Cat. No. 11 465 007 001), with the following modifications. Briefly, cells (1×10^4) were plated into 24 well-assay plates in 0.5 ml media and allowed to attach overnight. […] After the incubation period, 50 μl of the water-soluble MTT labeling reagent [3-[4,5-dimethylthiazol-2-yl]-2,5-diphenyl tetrazolium bromid] were added to the cells, and the cells were incubated for 4 h in a humidified chamber at 37° C. with 5% CO2. The metabolized insoluble formazan crystals were then solubilized using 0.5 ml of the Solubilization solution (10% SDS in 0.01M HCl) per well, and the resulting colored solutions were spectrophotometrically quantified at an absorbance of 570 nm.

Peptide text beside a SMILES is read from it. * marks the point of attachment. Cbz = O=C(OCc1ccccc1)*; CH2F = FC*

HSC70, sequence (P11142 whole entry): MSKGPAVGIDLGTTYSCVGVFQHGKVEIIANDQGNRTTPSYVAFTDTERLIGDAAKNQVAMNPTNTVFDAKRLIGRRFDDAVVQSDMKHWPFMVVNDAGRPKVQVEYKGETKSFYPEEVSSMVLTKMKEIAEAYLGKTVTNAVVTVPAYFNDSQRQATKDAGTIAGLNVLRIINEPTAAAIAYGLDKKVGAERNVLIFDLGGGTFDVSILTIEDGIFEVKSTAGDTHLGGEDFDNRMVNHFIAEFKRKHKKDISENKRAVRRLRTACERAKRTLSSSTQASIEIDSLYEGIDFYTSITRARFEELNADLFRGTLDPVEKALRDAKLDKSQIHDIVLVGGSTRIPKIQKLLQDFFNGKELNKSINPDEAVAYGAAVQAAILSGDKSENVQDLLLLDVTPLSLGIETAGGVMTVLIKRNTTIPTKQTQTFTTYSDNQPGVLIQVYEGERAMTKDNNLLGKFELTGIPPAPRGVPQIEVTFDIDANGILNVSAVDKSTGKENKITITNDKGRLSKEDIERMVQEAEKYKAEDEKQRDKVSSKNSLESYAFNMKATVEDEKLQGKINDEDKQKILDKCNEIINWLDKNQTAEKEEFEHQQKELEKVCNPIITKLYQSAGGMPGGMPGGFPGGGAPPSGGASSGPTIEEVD
GRP78, sequence (P11021 19-654): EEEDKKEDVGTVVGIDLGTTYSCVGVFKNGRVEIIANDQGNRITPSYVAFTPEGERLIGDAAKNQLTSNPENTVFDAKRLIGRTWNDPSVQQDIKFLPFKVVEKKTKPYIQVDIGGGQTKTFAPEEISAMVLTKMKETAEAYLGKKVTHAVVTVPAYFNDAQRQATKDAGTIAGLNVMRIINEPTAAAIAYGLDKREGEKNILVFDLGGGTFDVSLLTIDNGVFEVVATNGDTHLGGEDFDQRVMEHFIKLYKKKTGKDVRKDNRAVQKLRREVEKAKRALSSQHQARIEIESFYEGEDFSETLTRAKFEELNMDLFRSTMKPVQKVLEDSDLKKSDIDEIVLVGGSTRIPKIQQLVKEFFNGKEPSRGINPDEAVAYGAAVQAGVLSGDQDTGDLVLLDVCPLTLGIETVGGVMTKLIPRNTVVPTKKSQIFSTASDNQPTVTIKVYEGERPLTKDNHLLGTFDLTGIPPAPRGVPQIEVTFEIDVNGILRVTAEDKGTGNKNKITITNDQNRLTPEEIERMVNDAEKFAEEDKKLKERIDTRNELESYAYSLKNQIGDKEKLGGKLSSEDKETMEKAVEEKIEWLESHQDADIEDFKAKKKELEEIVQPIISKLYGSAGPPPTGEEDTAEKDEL

In the case of `C=CCNC1=C2C[C@@H](C)C[C@H](OC)[C@H](O)[C@@H](C)/C=C(\C)[C@H](OC(N)=O)[C@@H](OC)/C=C\C=C(/C)C(=O)NC(=CC1=O)C2=O` [17-AAG, 17-allylamino-17-demethoxygeldanamycin], the “p62/SQSTM1 oligomers in soluble and detergent-insoluble fractions” value in the test on p62/SQSTM1, LC3 is given as “neither p62/SQSTM1 accumulation nor oligomerization was noted”. In addition, the “activity of the 20S proteasome” value in the test with 20S proteasome is recorded as “little, if any, effect”. Further, in the test with EGFR, HER2/ErbB2, AKT, the “fate of HSP90 client proteins” value is reported as “causes proteasome-mediated degradation of HSP90 client proteins”. The “overall cellular abundance of EGFR, HER2/ErbB2 and AKT” value in the test on EGFR, HER2/ErbB2, AKT (SKBR3 cells, detergent-soluble extracts, 24 h) was “reduction in the overall cellular abundance”.
Turning to `O=C(CCCCC1SCC2NC(=O)NC21)NCCSSCCC(=O)NS(=O)(=O)C#Cc1ccccc1` (centres unmarked) [B-PES], the “interaction with in vitro translated HSP70” value at HSP70 [1] was “interacts with in vitro translated HSP70”. For the same compound, the “interaction with amino-terminal ATPase domain of HSP70” value on HSP70 [2] (amino acids 2-385) is recorded as “not the amino-terminal ATPase domain”. For the same compound, the “interaction with carboxyl-terminal substrate-binding domain of HSP70” value on HSP70 [2] (amino acids 386-641) is listed as “interacts with the carboxyl-terminal substrate-binding domain”. Further, the “HSP70 captured with B-PES” value on HSP70 [3] (IMR90 fibroblasts) is recorded as “did not observe a PES interaction”; at HSP70 [3] (tumor cells, 5 hr (FIG. 1G)) it was “found together with this small molecule”. The “interaction with endogenous HSP70” value on HSP70 [3] (several cell lines, 24 h) is recorded as “interacts with HSP70”. Also, the “interaction with endogenous HSC70” value on HSC70 (24 h) is given as “no detectable interaction”. Also, the “HSC70 captured with B-PES” value is given as “did not observe a PES interaction” on HSC70 (IMR90 fibroblasts) and “found together with this small molecule” on HSC70 (tumor cells, 5 hr (FIG. 1G)). Besides, the “interaction with endogenous GRP78” value at GRP78 was “no detectable interaction”. For the same compound, the “interaction with endogenous HSP90” value in the test on HSP90 is given as “no detectable interaction”. Moreover, the B-PES/HSP70 complex formation entry on HSP70 [4] was “direct interaction between B-PES and HSP70”.
For the compound `C[C@@H]1C[C@@H]([C@H](O)CC2CC(=O)NC(=O)C2)C(=O)[C@@H](C)C1` [CHX, cycloheximide], in the test on p62/SQSTM1, LC3 (co-treated with PES for 6 h), the “PES-induced p62/SQSTM1 accumulation and oligomerization under co-treatment” value is “reduced the accumulation and oligomerization of the autophagy marker p62/SQSTM1”.
As for `CC(C)C[C@H](NC(=O)[C@H](Cc1ccccc1)NC(=O)c1cnccn1)B(O)O` [Velcade, bortezomib], the “p62/SQSTM1 oligomers in soluble and detergent-insoluble fractions” value in the test with p62/SQSTM1, LC3 is on record as “promoted p62/SQSTM1 oligomerization primarily in the detergent-insoluble fraction”.
With `COC(=O)C[C@H](NC(=O)[C@H](C)NC(=O)[C@@H](NC(=O)OCc1ccccc1)C(C)C)C(=O)CF` [Z-VAD-FMK] (Cbz-Val-Ala-Asp(OMe)-CH2F), the “cisplatin- and camptothecin-mediated caspase cleavage” value with caspase-3, caspase-8 is recorded as “inhibited cisplatin- as well as camptothecin-mediated caspase cleavage”. Besides, the “effect on PES-mediated loss of cell viability” value in the test with tumor cell lines is given as “did not alter PES-mediated loss of cell viability”.

(Values after patent US9296687B2, “Modulators of HSP70/DnaK function and methods of use thereof” (The Trustees of the University of Pennsylvania, priority 2008, dated 2016).)
